Results: patent publication US12331048B2, “Pyrido-[3,4-d]pyridazine amine derivatives useful as NLRP3 inhibitors” (Ventus Therapeutics U.S., Inc., priority 2022, dated 2025)
Converted amounts (≈) assume the structure as drawn. Read-outs that look alike come from different tables or passages of the source.

Legend:
[1] = Solubility in phosphate buffered solution (PBS, pH 7.4); assay type: physicochemical; settings: for solubility at 2 h: phosphate buffered solution (PBS), aqueous buffer, kinetic from dmso stock; for increase in solubility (PBS, pH 7.4) compared to Comparative Example 3: relative to Comparative Example 3 (6.7 uM)
Method: In additional embodiments, the solubility of compounds of the instant disclosure may be determined following known procedures, such as described in Alsenz and Kansy, Advanced Drug Delivery Reviews (2007) 59:546-567, and Wang et al. J Mass Spectrom. (2000) 35:71-76. For example, the kinetic solubility in physiologically relevant media, such as phosphate buffered solution (PBS, pH 7.4) or simulated gastric fluid (SGF), may be measured using serial dilution and two hour incubation period, followed by filtration, and reported in μM by LC-MS/MS. Thermodynamic solubility in physiologically relevant media may be measured by LC-MS/MS, after a twenty-four hour incubation, followed by filtration, and reported in mg/mL. Optimized solubility may be beneficial for manufacturing and further processing of the compound. Furthermore, optimized solubility allows for a more efficient in vitro analysis of the compound, including data collection around the compound's safety, drug-drug interactions, potency, selectivity, metabolism, and permeability. […]

NLRP3 = molecular target: T1, NLRP3 (Homo sapiens, UniProt Q96P20); experiment: Human whole blood (hWB) NLRP3 assay; assay type: cell-based; settings: LPS priming 1 μg/ml, ATP activation, read-out: hWB IC50 (raw activity data)
T1 construct: endogenous in cells
Method: Heparin lithium coated tubes were used to collect blood from volunteers. Blood samples were distributed on 96 well plates using 90 μl per well. Priming was performed by adding 5 μl of LPS (O26:B6; Sigma L-2654) at a final concentration of 1 μg/ml for 4.5 hours in a humidified incubator with 37° C., 5% CO2. Thirty minutes prior to NLRP3 activation, 5 μl of a 20× compound solution or vehicle (2% DMSO) was added to each well and plates were incubated on a shaker (450 rpm) in a humidified incubator with 37° C., 5% CO2. Activation was then performed by adding 3.3 μl of a 31×ATP solution per well. At the end of the 30 minutes stimulation, the plates were centrifuged (800 g, 10 min. room temperature) and the plasma from each well was frozen at −80° C. […] levels in the supernatant were analyzed using a mesoscale discovery assay (MSD K151TUK) according to the manufacturers' instructions. Human whole blood was drawn from healthy volunteers after obtaining written informed consent.
Table D assigns each compound a code for potency in the human whole blood (hWB) NLRP3 Assay: A or B. According to the code. […] The corresponding raw activity data is also included.

[2] = Brain levels (kp and kpu,u) after oral administration; assay type: in vivo, CDI mice; settings: mice, 20 mpk PO; for Kp at 24 h / Kpu,u (unbound brain-to-plasma ratio): CDI, mouse, brain / plasma, po, 20 mg/kg; for Kp at 24 h: whole brain AUC over 24 h divided by plasma AUC
Method: The in vivo total brain to plasma ratio was assessed in CDI mice after oral administration of the compound. Blood was collected at several timepoints up to 24 h, and transferred into plastic micro centrifuge tubes with EDTA-K2 as anticoagulant. Blood samples were centrifuged at 4000 g for 5 minutes at 4° C. to obtain plasma, then immediately frozen and stored at −75±15° C. prior to analysis. Animals were terminally anaesthetized with a rising concentration of CO2 gas at about 1 minute. At selected timepoints, whole brains were removed from the skull, rinsed in cold PBS to remove blood, dried with clean gauze, then frozen in liquid nitrogen and kept at −75±15° C. before analysis. At the time of analysis, brain samples were homogenized with PBS by tissue weight (g) to PBS volume (mL) ratio 1:3. Plasma and brain drug levels were quantified by LC/MS/MS on a AB Sciex Triple Quad 5500+ instrument, after separation on a HALO 160A ES-C18, 2.7 μm 2.1-50 mm column. Quantitation was performed using a calibration curve prepared in blank plasma or blank brain homogenate. The software WinNonlin (Phoenix™) was used for pharmacokinetic analysis from the concentrations versus time data, including the AUCinf and AUClast. The Kp ratio (total brain concentration over total plasma concentration) was calculated as (AUCtot,br)/(AUCtot,pl).
The unbound brain exposure was assessed as Kpuu, which is the free brain/free plasma concentration ratio (Cu,br/Cu,pl). The Cu,br/Cu,pl ratios were obtained from in vivo total brain to plasma ratios (Ctot,br/Ctot,pl) by using in vitro determined Fu,br and Fu,pl.
Plasma protein binding and brain homogenate protein binding were measured by equilibrium dialysis in a HTDialysis plate. The dialysis membranes were soaked in ultrapure water for 60 minutes to separate strips, then in 20% ethanol for 20 minutes, finally in dialysis buffer for 20 minutes. The dialysis set up was assembled according to the manufacturer's instruction. Each cell received 150 μL of plasma or brain homogenate spiked with 1 mM of compound, and dialyzed against an equal volume of dialysis buffer (PBS). The dialysis plate was sealed and incubated in an incubator at 37° C. with 5% CO2 at 100 rpm for 6 hours. At the end of incubation, compound concentration was measured in both chambers by LC-MS/MS on a Triple Quad™ 5500 from AB Inc after separation on a XSelect Hss T3 2.5μ (2.1×30 mm) column. Free fraction (Fu) was calculated as (Peak Area Ratio buffer chamber/Peak Area Ratio plasma chamber).
Kpuu was calculated as (AUCtot,br×Fu,br)/(AUCtot,pl×Fu,pl).
The below table also assigns each compound a code for kp and kpu,u values: A or B. According to the code. A represents a value of >0.3 and B represents a value of ≤0.3. […] The kpu,u was then calculated upon correcting this kp value with mouse plasma protein binding and mouse brain homogenates binding. A Kpu,u value >0.3 is brain penetrant, and Kpu,u value less than or equal to 0.3 is not brain penetrant. N.D.=not determined. The corresponding raw kp and kpu,u data is also included.

[3] = kp corrected with mouse plasma protein binding and mouse brain homogenate binding

T1 sequence (Q96P20 whole entry): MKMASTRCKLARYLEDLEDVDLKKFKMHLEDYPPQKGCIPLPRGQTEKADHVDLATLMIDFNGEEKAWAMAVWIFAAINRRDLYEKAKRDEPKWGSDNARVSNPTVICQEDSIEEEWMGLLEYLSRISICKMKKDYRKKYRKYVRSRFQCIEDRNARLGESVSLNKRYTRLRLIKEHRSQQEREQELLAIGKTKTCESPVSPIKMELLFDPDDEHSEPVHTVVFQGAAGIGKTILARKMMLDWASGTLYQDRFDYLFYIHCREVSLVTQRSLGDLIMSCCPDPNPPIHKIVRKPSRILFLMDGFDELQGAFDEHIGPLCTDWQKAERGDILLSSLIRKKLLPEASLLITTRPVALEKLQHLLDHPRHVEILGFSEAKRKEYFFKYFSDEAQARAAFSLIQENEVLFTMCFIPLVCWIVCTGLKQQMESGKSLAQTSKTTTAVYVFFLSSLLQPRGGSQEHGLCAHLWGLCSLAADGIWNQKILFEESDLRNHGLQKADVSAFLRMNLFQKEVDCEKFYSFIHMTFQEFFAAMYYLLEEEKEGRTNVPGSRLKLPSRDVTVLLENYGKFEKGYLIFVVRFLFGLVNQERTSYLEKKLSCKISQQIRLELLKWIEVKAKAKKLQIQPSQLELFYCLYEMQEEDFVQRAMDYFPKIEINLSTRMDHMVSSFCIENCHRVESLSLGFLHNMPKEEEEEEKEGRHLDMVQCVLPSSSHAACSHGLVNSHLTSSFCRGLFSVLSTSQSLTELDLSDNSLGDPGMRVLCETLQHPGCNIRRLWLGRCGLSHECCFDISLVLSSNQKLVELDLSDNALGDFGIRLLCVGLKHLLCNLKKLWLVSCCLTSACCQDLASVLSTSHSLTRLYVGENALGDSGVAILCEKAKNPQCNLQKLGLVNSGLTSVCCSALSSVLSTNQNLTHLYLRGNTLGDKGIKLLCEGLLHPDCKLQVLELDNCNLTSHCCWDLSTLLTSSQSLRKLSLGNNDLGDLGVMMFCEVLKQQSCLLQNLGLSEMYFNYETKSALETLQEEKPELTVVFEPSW

Structure (SMILES)	solubility at 2 h [1]	increase in solubility (PBS, pH 7.4) compared to Comparative Example 3 [1]	IC50 (NLRP3)	Kp at 24 h ([2]; read-out: kp (code))	Kp at 24 h ([2]; read-out: kp (raw))	Kpu,u (unbound brain-to-plasma ratio) [2, 3]	kpu,u (code) [2, 3]	kpu,u (raw) [2, 3]
CC1(C)C[C@@H](Nc2nnc(-c3ccc(OC(F)F)cc3O)c3ccncc23)CO1 (single isomer, unassigned) [Compound 9B*]	45 µM (≈ 18.1 µg/mL)	7 fold	0.061 µM	≤ 0.3	0.24	0.52	A (A represents a value of >0.3)	–
C[C@H]1C[C@H](Nc2nnc(-c3ccc(Cl)cc3O)c3ccncc23)CCO1 (single isomer, unassigned) [Compound 25C*]	–	–	1.4 µM	> 0.3	0.65	0.099	B (B represents a value of ≤0.3)	–
Oc1cc(Cl)ccc1-c1nnc(N[C@H]2CCOC2)c2cnccc12 (single isomer, unassigned) [Compound 7*, reference compound]	–	–	0.8 µM	≤ 0.3	0.13	0.15	B (B represents a value of ≤0.3)	–
CC1(C)C[C@@H](Nc2nnc(-c3ccc(C(F)(F)F)cc3O)c3ccncc23)CCO1 (single isomer, unassigned) [Compound 11*]	–	–	1.4 µM	> 0.3	0.96	1.3	A (A represents a value of >0.3)	–
Cc1ccc(-c2nnc(N[C@H]3CCOC(C)(C)C3)c3cnccc23)c(O)c1 (single isomer, unassigned) [Compound 14]	–	–	0.51 µM	> 0.3	0.64	0.33	A (A represents a value of >0.3)	–
CC1(C)CC[C@H](Nc2nnc(-c3ccc(C(F)F)cc3O)c3ccncc23)CO1 (single isomer, unassigned) [Compound 20]	–	–	0.89 µM	> 0.3	0.61	0.46	A (A represents a value of >0.3)	–
CN1CCO[C@@H](CNc2nnc(-c3ccc(C(F)(F)F)cc3O)c3ccncc23)C1 (single isomer, unassigned) [Compound 6*]	–	–	0.43 µM	> 0.3	0.66	2.3	A (A represents a value of >0.3)	–
Cc1ccc(-c2nnc(N[C@H]3CCOCC3(C)C)c3cnccc23)c(O)c1 (single isomer, unassigned) [Compound 13]	–	–	0.22 µM	> 0.3	0.6	0.77	A (A represents a value of >0.3)	–
Cc1cc(O)c(-c2nnc(N[C@H]3COC(C)(C)C3)c3cnccc23)c(Cl)c1 (single isomer, unassigned) [Compound 26*]	280 µM (≈ 108 µg/mL)	42 fold	0.9 µM	≤ 0.3	0.1	0.17	B (B represents a value of ≤0.3)	–
CC1(C)COCC[C@@H]1Nc1nnc(-c2ccc(C(F)(F)F)cc2O)c2ccncc12 (single isomer, unassigned) [Compound 15]	–	–	1.2 µM	> 0.3	0.83	2.2	A (A represents a value of >0.3)	–
CC1(C)C[C@@H](Nc2nnc(-c3ccc(C(F)F)cc3O)c3ccncc23)CO1 (single isomer, unassigned) [Compound 23]	–	–	0.12 µM	≤ 0.3	0.24	0.33	A (A represents a value of >0.3)	–
[2H]C([2H])([2H])OC(C)(C)CNc1nnc(-c2ccc(C(F)F)cc2O)c2ccncc12 [Compound 2, 5-(difluoromethyl)-2-(4-((2-(methoxy-d3)-2-methylpropyl)amino)pyrido[3,4-d]pyridazin-1-yl)phenol]	–	–	0.16 µM	≤ 0.3	0.24	2.2	A (A represents a value of >0.3)	–
CC1(C)C[C@@H](Nc2nnc(-c3ccc(Cl)cc3O)c3ccncc23)CO1 [Comparative Example 3, (R)-5-chloro-2-(4-((5,5-dimethyltetrahydrofuran-3-yl)amino)pyrido[3,4-d]pyridazin-1-yl)phenol, reference compound]	6.7 µM (≈ 2.48 µg/mL)	–	–	> 0.3	0.4	–	A (A represents a value of >0.3)	0.43
CC1(C)COCC[C@@H]1Nc1nnc(-c2ccc(C(F)F)cc2O)c2ccncc12 (single isomer, unassigned) [Compound 17]	–	–	0.33 µM	> 0.3	0.69	1.9	A (A represents a value of >0.3)	–
Cc1ccc(-c2nnc(N[C@H]3CCC(C)(C)OC3)c3cnccc23)c(O)c1 (single isomer, unassigned) [Compound 10*]	–	–	1.4 µM	> 0.3	0.35	0.51	A (A represents a value of >0.3)	–
OCC1(CNc2nnc(-c3ccc(Cl)cc3O)c3ccncc23)CC1 [Compound 8, 5-chloro-2-(4-(((1-(hydroxymethyl)cyclopropyl)methyl)amino)pyrido[3,4-d]pyridazin-1-yl)phenol, reference compound]	–	–	0.2 µM	–	0.18	0.11	B (B represents a value of ≤0.3)	–
CC1(C)C[C@@H](Nc2nnc(-c3ccc(Cl)cc3O)c3ccncc23)CCO1 (single isomer, unassigned) [Compound 4*]	–	–	0.66 µM	> 0.3	0.81	0.89	A (A represents a value of >0.3)	–
C[C@H]1COCC[C@H]1Nc1nnc(-c2ccc(Cl)cc2O)c2ccncc12 (single isomer, unassigned) [Compound 18*]	–	–	0.89 µM	> 0.3	0.68	0.47	A (A represents a value of >0.3)	–
